# Source: patent US11780841B2, “3,6-methano-1H-pyrrolo[3,2-b]pyridine and 3,6-methano-1H-pyrrolo[3,2-c]pyridine compounds and medicaments using same” (priority 2018, dated 2023)
# System: recombinant rabies virus 1088 strain expressing Gaussia Luciferase (GLuc) (1088/GLuc)
# Assay type: cell-based
# Conditions: read-out: Anti-rabies activity
row,Structure (SMILES),IC50
1,O=C(O)CCNC(=O)[C@]12NC[C@H]3C[C@H]1CN(Cc1ccc(O)cc1)[C@H]2[C@@H]3Cc1cccc2ccccc12 [IB-410],10 to 30 µM
2,CC(C)CC[C@@H]1[C@H]2CN[C@@]3(C(=O)NCCO)[C@@H](C2)CN(Cc2ccccc2)[C@@H]13 [IB-680],10 to 30 µM
3,CCCCCCNC(=O)[C@@]12C[C@@H]3CN(CCC(C)C)[C@@H]([C@@H]3CN1)[C@H]2Cc1ccc(O)cc1 (relative stereo) [IF-583],< 5 µM
4,CC(C)CN1CC2CC3CNC2(C(=O)NCCc2ccccc2)C1C3Cc1ccc(O)cc1 (centres unmarked) [IB-536],10 to 30 µM
5,CC(C)C[C@@H]1[C@@H]2[C@@H]3CN[C@@]1(C(=O)NCc1ccccc1)C[C@@H]3CN2Cc1ccccc1 (relative stereo) [IF-7],5 to 10 µM
6,CC(C)C[C@@H]1[C@@H]2[C@@H]3CN[C@@]1(C(=O)NCCc1ccccc1)C[C@@H]3CN2CC(C)C [IF-725],10 to 30 µM
7,CC(C)CCNC(=O)[C@@]12C[C@@H]3CN(CC(C)C)[C@@H]([C@@H]3CN1)[C@H]2CCc1ccccc1 [IF-673],< 5 µM
8,CC(C)CC[C@@H]1[C@H]2CN[C@@]3(C(=O)NCCC(N)=O)[C@@H](C2)CN(CCc2ccccc2)[C@@H]13 [IB-342],10 to 30 µM
9,NC(=O)CN1C[C@H]2C[C@]3(C(=O)NCc4ccc(O)cc4)NC[C@H]2[C@H]1[C@H]3Cc1cccc2ccccc12 [IF-137],< 5 µM
10,CC(C)C[C@@H]1[C@H]2CN[C@@]3(C(=O)NCc4ccccc4)[C@@H](C2)CN(CCc2ccccc2)[C@@H]13 [IB-757],< 5 µM
11,O=C(NCc1ccccc1)[C@@]12C[C@@H]3CN(Cc4cccc5ccccc45)[C@@H]([C@@H]3CN1)[C@H]2Cc1ccccc1 (relative stereo) [IF-42],10 to 30 µM
12,CC(C)CC[C@@H]1[C@H]2CN[C@@]3(C(=O)NCc4cccc5ccccc45)[C@@H](C2)CN(CCC(=O)O)[C@@H]13 [IB-398],10 to 30 µM
13,NC(=O)C[C@@H]1[C@@H]2[C@@H]3CN[C@@]1(C(=O)NCCc1ccccc1)C[C@@H]3CN2CC1CCCCC1 [IF-251],10 to 30 µM
14,CC(C)CC[C@@H]1[C@@H]2[C@@H]3CN[C@@]1(C(=O)NCc1ccc(O)cc1)C[C@@H]3CN2Cc1ccc(F)cc1 [IF-479],< 5 µM
15,CC(C)CNC(=O)C12NCC3CC1CN(CCc1ccccc1)C2C3CCC(=O)O (centres unmarked) [IB-508],10 to 30 µM
16,CC(C)C[C@@H]1[C@@H]2[C@@H]3CN[C@@]1(C(=O)NCCO)C[C@@H]3CN2Cc1cccc2ccccc12 [IF-604],10 to 30 µM
17,"CC(C)C[C@@H]1[C@@H]2CN[C@@]3(C(=O)NCc4cccc5ccccc45)[C@@H](C2)CN(CCCNC(=N)N)[C@@H]13 (relative stereo) [IB-164, (3S*,3aS*,6R*,7R*,7aS*)-1-(3-guanidinopropyl)-7-isobutyl-N-(naphthalen-1-ylmethyl)octahydro-3aH-3,6-methanopyrrolo[3,2-b]pyridine-3a-carboxamide]",< 5 µM
18,Cc1ccc(CN2C[C@H]3C[C@@]4(C(=O)NCc5ccccc5)[C@H](CC(C)C)[C@@H]2[C@@H]3CN4C(=O)OCC(C)C)cc1 [IF-861],5 to 10 µM
19,CC(C)CC[C@@H]1[C@H]2CN[C@@]3(C(=O)NCCc4ccccc4)[C@@H](C2)CN(CC(N)=O)[C@@H]13 [IB-89],< 5 µM
20,NC(=O)CCNC(=O)C12NCC3CC1CN(CC1CCCCC1)C2C3Cc1cccc2ccccc12 (centres unmarked) [IB-522],10 to 30 µM
21,CCCCCCNC(=O)[C@@]12C[C@@H]3CN(Cc4cccc5ccccc45)[C@@H]([C@@H]3CN1)[C@H]2CCCNC(=N)N [IF-243],< 5 µM
22,CC(C)CCN1CC2CC3CNC2(C(=O)NCc2ccc(O)cc2)C1C3Cc1ccccc1 (centres unmarked) [IB-577],10 to 30 µM

row,Structure (SMILES),IC50
1,CC(C)CC[C@@H]1[C@H]2CN[C@@]3(C(=O)NCCCNC(=N)N)[C@@H](C2)CN(Cc2ccc(F)cc2)[C@@H]13 [IB-369],10 to 30 µM
2,CC(C)CCN1C[C@@H]2C[C@@H]3CN[C@]2(C(=O)NCCO)[C@@H]1[C@@H]3CCc1ccccc1 [IB-658],10 to 30 µM
3,Cc1ccc(CN2C[C@@H]3C[C@@H]4CN[C@]3(C(=O)NCc3ccccc3)[C@@H]2[C@@H]4CC(C)C)cc1 [IB-867],5 to 10 µM
4,O=C(NCc1ccc(O)cc1)[C@@]12C[C@@H]3CN(CC4CCCCC4)[C@@H]([C@@H]3CN1)[C@H]2CCc1ccccc1 [IF-475],10 to 30 µM
5,CC(C)CCNC(=O)[C@]12NC[C@H]3C[C@H]1CN(CC(N)=O)[C@H]2[C@@H]3CCc1ccccc1 [IB-102],< 5 µM
6,N=C(N)NCCC[C@@H]1[C@@H]2[C@@H]3CN[C@@]1(C(=O)NCc1cccc4ccccc14)C[C@@H]3CN2Cc1ccccc1 [IF-284],10 to 30 µM
7,O=C(NCCO)C12NCC3CC1CN(Cc1cccc4ccccc14)C2C3Cc1ccccc1 (centres unmarked) [IB-588],< 5 µM
8,N=C(N)NCCC[C@@H]1[C@H]2CN[C@@]3(C(=O)NCc4ccc(F)cc4)[C@@H](C2)CN(Cc2ccc(O)cc2)[C@@H]13 [IB-207],10 to 30 µM
9,O=C(O)CC[C@@H]1[C@H]2CN[C@@]3(C(=O)NCc4cccc5ccccc45)[C@@H](C2)CN(Cc2ccc(F)cc2)[C@@H]13 [IB-390],10 to 30 µM
10,CC(C)CNC(=O)[C@]12NC[C@H]3C[C@H]1CN(CCc1ccccc1)[C@H]2[C@@H]3Cc1ccccc1 [IB-759],< 5 µM
11,CCCCCCNC(=O)[C@]12NC[C@H]3C[C@H]1CN(CC(N)=O)[C@H]2[C@@H]3CCc1ccccc1 [IB-109],10 to 30 µM
12,CC(C)CNC(=O)[C@@]12C[C@@H]3CN(Cc4cccc5ccccc45)[C@@H]([C@@H]3CN1)[C@H]2CCCNC(=N)N [IF-235],10 to 30 µM
13,CC(C)CC[C@@H]1[C@H]2CN[C@@]3(C(=O)NCC(C)C)[C@@H](C2)CN(CCO)[C@@H]13 [IB-372],10 to 30 µM
14,CC(C)CCN1C[C@@H]2C[C@@H]3CN[C@]2(C(=O)NCCO)[C@@H]1[C@@H]3Cc1cccc2ccccc12 [IB-659],< 5 µM
15,N=C(N)NCCC[C@@H]1[C@@H]2[C@@H]3CN[C@@]1(C(=O)NCc1cccc4ccccc14)C[C@@H]3CN2Cc1ccc(F)cc1 [IF-297],10 to 30 µM
16,O=C(NCc1ccc(O)cc1)[C@@]12C[C@@H]3CN(Cc4ccc(F)cc4)[C@@H]([C@@H]3CN1)[C@H]2Cc1ccccc1 [IF-481],10 to 30 µM
17,O=C(NCc1ccc(F)cc1)[C@]12NC[C@H]3C[C@H]1CN(CCO)[C@H]2[C@@H]3Cc1ccccc1 [IB-479],10 to 30 µM
18,CC(C)CNC(=O)[C@]12NC[C@H]3C[C@H]1CN(Cc1ccccc1)[C@H]2[C@@H]3CCCNC(=N)N [IB-198],10 to 30 µM
19,CC(C)CNC(=O)[C@@]12C[C@@H]3CN(Cc4ccccc4)[C@@H]([C@@H]3CN1)[C@H]2Cc1ccccc1 (relative stereo) [IF-6],10 to 30 µM
20,CC(C)CCN1CC2CC3CNC2(C(=O)NCc2ccc(O)cc2)C1C3CCc1ccccc1 (centres unmarked) [IB-576],10 to 30 µM
21,O=C(O)CCNC(=O)[C@@]12C[C@@H]3CN(CC4CCCCC4)[C@@H]([C@@H]3CN1)[C@H]2Cc1cccc2ccccc12 [IF-416],10 to 30 µM
22,CC(C)CNC(=O)C12NCC3CC1CN(CC1CCCCC1)C2C3CCC(=O)O (centres unmarked) [IB-510],10 to 30 µM

row,Structure (SMILES),IC50
1,CC(C)C[C@@H]1[C@H]2CN[C@@]3(C(=O)NCc4ccc(O)cc4)[C@@H](C2)CN(Cc2ccc(F)cc2)[C@@H]13 [IB-458],10 to 30 µM
2,O=C(O)CC[C@@H]1[C@H]2CN[C@@]3(C(=O)NCc4cccc5ccccc45)[C@@H](C2)CN(CC2CCCCC2)[C@@H]13 [IB-389],10 to 30 µM
3,CC(C)CN1C[C@@H]2C[C@@H]3CN[C@]2(C(=O)NCc2ccccc2)[C@@H]1[C@@H]3Cc1ccc(O)cc1 [IB-783],10 to 30 µM
4,COC(=O)N1C[C@H]2C[C@H]3CN(Cc4ccc(C)cc4)[C@@H]([C@@H]2CC(C)C)[C@]31C(=O)NCc1ccccc1 (relative stereo) [IB-885],5 to 10 µM
5,N=C(N)NCCC[C@@H]1[C@H]2CN[C@@]3(C(=O)NCCc4ccccc4)[C@@H](C2)CN(Cc2ccc(F)cc2)[C@@H]13 [IB-262],10 to 30 µM
6,CC(C)CNC(=O)[C@]12NC[C@H]3C[C@H]1CN(Cc1ccc(O)cc1)[C@H]2[C@@H]3CCCNC(=N)N [IB-203],10 to 30 µM
7,CC(C)C[C@@H]1[C@@H]2[C@@H]3CN[C@@]1(C(=O)NCc1ccccc1)C[C@@H]3CN2Cc1cccc(Cl)c1 [IF-840],5 to 10 µM
8,CC(C)CN1C[C@@H]2C[C@@H]3CN[C@]2(C(=O)NCCC(N)=O)[C@@H]1[C@@H]3Cc1cccc2ccccc12 [IB-737],10 to 30 µM
9,CC(C)CC[C@@H]1[C@@H]2[C@@H]3CN[C@@]1(C(=O)NCc1ccc(O)cc1)C[C@@H]3CN2CCc1ccccc1 [IF-468],10 to 30 µM
10,CCCCCCNC(=O)C12NCC3CC1CN(CCC(C)C)C2C3CC(C)C (centres unmarked) [IB-551],< 5 µM
11,CC(C)CCN1C[C@@H]2C[C@@H]3CN[C@]2(C(=O)NCc2cccc4ccccc24)[C@@H]1[C@@H]3CO [IB-426],< 5 µM
12,Cc1ccc(CN2C[C@H]3C[C@@]4(C(=O)NCc5ccccc5)[C@H](CC(C)C)[C@@H]2[C@@H]3CN4C(=O)OCc2ccccc2)cc1 [IF-862],5 to 10 µM
13,CC(C)C[C@@H]1[C@H]2CN[C@@]3(C(=O)NCc4ccccc4)[C@@H](C2)CN(Cc2ccc(C(C)(C)C)cc2)[C@@H]13 [IB-874],5 to 10 µM
14,NC(=O)CN1C[C@@H]2C[C@@H]3CN[C@]2(C(=O)NCc2ccc(F)cc2)[C@@H]1[C@@H]3Cc1cccc2ccccc12 [IB-96],10 to 30 µM
15,NC(=O)CN1C[C@H]2C[C@]3(C(=O)NCc4cccc5ccccc45)NC[C@H]2[C@H]1[C@H]3Cc1ccccc1 (relative stereo) [IF-82],10 to 30 µM
16,NC(=O)C[C@@H]1[C@@H]2[C@@H]3CN[C@@]1(C(=O)NCc1cccc4ccccc14)C[C@@H]3CN2CCc1ccccc1 [IF-223],10 to 30 µM
17,CC(C)CCN1C[C@H]2C[C@]3(C(=O)NCC(C)C)NC[C@H]2[C@H]1[C@H]3Cc1cccc2ccccc12 [IF-734],< 5 µM
18,N=C(N)NCCCNC(=O)[C@]12NC[C@H]3C[C@H]1CN(Cc1ccccc1)[C@H]2[C@@H]3CCc1ccccc1 [IB-279],10 to 30 µM
19,NC(=O)CCNC(=O)[C@@]12C[C@@H]3CN(CC4CCCCC4)[C@@H]([C@@H]3CN1)[C@H]2Cc1cccc2ccccc12 [IF-536],< 5 µM
20,CCCCCCNC(=O)[C@@]12C[C@@H]3CN(CC(C)C)[C@@H]([C@@H]3CN1)[C@H]2CC(C)C (relative stereo) [IF-569],10 to 30 µM
21,CC(C)CCNC(=O)[C@]12NC[C@H]3C[C@H]1CN(CC(N)=O)[C@H]2[C@@H]3Cc1cccc2ccccc12 [IB-103],10 to 30 µM
22,CC(C)CC1C2C3C=NC1(C(=O)NCc1ccccc1)CC3CN2Cc1ccc(Cl)cc1 (centres unmarked) [IIF-83],< 5 µM

# Same assay, conditions: read-out: IC50
row,Structure (SMILES),IC50
1,CC(C)C[C@@H]1[C@@H]2[C@@H]3CN[C@@]1(C(=O)NCc1ccccc1)C[C@@H]3CN2Cc1ccccc1 (relative stereo) [IF-7],8.5 µM
2,CC(C)CNC(=O)[C@@]12C[C@@H]3CN(Cc4ccccc4)[C@@H]([C@@H]3CN1)[C@H]2Cc1ccccc1 (relative stereo) [IF-6],16.3 µM
